Columns and labels:
[1] = system: arterial thrombosis in a mouse model; experiment: Arterial thrombosis in a mouse model (FeCl3, femoral artery); format: in vivo; settings: mice; dose not given
Protocol: The solutions are diluted 3.3-fold in saline and 100 μl/25 g is injected. Thus, the above-mentioned doses of 100 and 300 mg/kg of compound correspond to final doses of 30 and 100 mg/kg.
During the experiments, a soluble salt of the drug is provided (e.g., potassium salt of compound C), diluted in saline. Of this formulation, 100 μl/25 g is injected i.v. in the tail vein (dose of 100 mg/kg).
Solutions are injected (100 μl/25 g body weight) i.v. in the tail vein over 2 min to obtain doses of each compound of 30 mg/kg and 100 mg/kg. Aspirin is given the same way at a dose of 200 mg/kg. Clopidogrel is administered by oral gavage at a dose of 20 mg/kg at 6-7 hours prior to the experiment. The animals assigned to each group are matched for body weight. Mice are typically 8-10 weeks old males and are in a 100% Swiss genetic background.
The flow in each image is expressed as a percentage of that at the contralateral side, and data are averaged for all 120 images to determine total flow. The same analysis is performed for 10 min intervals (which gives essentially the same information as the area under the curve). […] Flow before treatment is recorded as 100%, and that in occluded arteries as 0%. At the end of the experiment, blood is collected on 0.01M citrate buffer by heart puncture for determination of blood cell counts. Plasma is prepared by centrifugation and stored at −20° C. for determination of drug levels.
Statistical analysis for differences between two groups is performed by non-parametric Student t-test. Occlusion times >30 min were considered equal to 30 min for statistical analysis. Significance is set at p<0.05.

[2] = system: U-46619-induced platelet aggregation; experiment: TP receptor platelet aggregation, rabbit; format: cell-based, New Zealand Rabbit
Protocol: Thrombosis Research 33:277-288.
TP Receptor Platelet Aggregation—Rabbit:
New Zealand Rabbit (2.75±0.25 kg) platelet rich plasma
Assay: Inhibition of 1.5 μM U-46619-induced platelet aggregation Incubation Time, Temp: 5 minutes at 37° C. Incubation Buffer Trisodium Citrate (0.13 M)-treated platelet rich plasma
Time of Assessment: 5 minutes
Quantification Method Optical Density Change

[3] = target: T1, Human Recombinant (E. coli) PPARgamma (Homo sapiens, UniProt P37231); experiment: PPAR gamma binding assay
T1 construct: host or cells: E. coli
T1 sequence (P37231 1-505): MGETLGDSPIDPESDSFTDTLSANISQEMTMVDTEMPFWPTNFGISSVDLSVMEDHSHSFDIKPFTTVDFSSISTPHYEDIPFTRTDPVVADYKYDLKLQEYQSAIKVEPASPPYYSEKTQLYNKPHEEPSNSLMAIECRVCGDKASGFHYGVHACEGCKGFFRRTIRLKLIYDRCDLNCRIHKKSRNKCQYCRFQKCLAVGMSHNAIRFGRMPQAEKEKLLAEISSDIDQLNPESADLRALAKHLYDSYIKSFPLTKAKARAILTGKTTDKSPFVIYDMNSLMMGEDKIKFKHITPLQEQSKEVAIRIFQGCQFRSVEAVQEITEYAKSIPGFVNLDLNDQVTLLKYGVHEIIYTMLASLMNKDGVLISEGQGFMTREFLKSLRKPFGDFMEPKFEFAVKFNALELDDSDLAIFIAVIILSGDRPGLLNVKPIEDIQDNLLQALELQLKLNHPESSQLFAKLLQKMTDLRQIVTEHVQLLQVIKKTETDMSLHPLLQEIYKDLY
Protocol: Incubation: 120 min. at 4° C.
The results are expressed as a percent of control specific binding ((measured specific binding/control specific binding)×100) obtained in the presence of the test compounds. The IC50 values (concentration causing a half-maximal inhibition of control specific binding) and Hill coefficients (nil) were determined by non-linear regression analysis of the competition curves generated with mean replicate values using Hill equation curve fitting (Y=D+[(A−D)/(1+(C/C50)nH)], where Y=specific binding, D=minimum specific binding, A=maximum specific binding, C=compound concentration, C50=IC50, and nH=slope factor). This analysis was performed using a software developed at Cerep (Hill software) and validated by comparison with data generated by the commercial software SigmaPlot 4.0 for Windows® (© 1997 by SPSS Inc.). The inhibition constants (Ki) were calculated using the Cheng Prusoff equation (Ki=IC50/(1+(L/KD)), where L=concentration of radioligand in the assay, and KD=affinity of the radioligand for the receptor).

[4] = system: 3T3-L1 adipocytes; experiment: Insulin-stimulated glucose uptake assay; format: cell-based; settings: compared with Compound A (racemate)
Protocol: Briefly, glucose uptake is measured in 3T3-L1 adipocytes cultured in 96-well plates. On day 6 of differentiation (according to the MDI-protocol, see above) cells are treated with either vehicle, positive control (Avandia) or test compound. 48 hours later the ability of adipocytes to take up glucose in response to insulin is determined. Cells are washed with serum-free DMEM+antibiotics and incubated in the same medium at 37° C. for 2 hours. Cells are then washed and subsequently incubated in Krebs-Ringer-Hepes (KRP) buffer for 30 min at 37° C. Hereafter, insulin is added to the cells to a final concentration of 10 nM and cells are then incubated at 37° C. for 15 min. Glucose uptake is initiated by the addition of KRP buffer supplemented with 10 mM [^14C] 2-deoxy-D-glucose. After further incubation for 15 min at 37° C., glucose uptake is terminated by addition of a large surplus of cold glucose and three rapid washes of ice-cold PBS. Cells are then lysed and ^14C-radioactivity determined by scintillation counting.

Ki ([3]; [3H]-rosiglitazone 10 nM, Cheng Prusoff, read-out: PPARγ binding Ki): 2.7 µM
IC50 ([3]; [3H]-rosiglitazone 10 nM, read-out: PPARγ binding IC50): 7.4 µM
Compound: O=C(O)CC/C=C\CC1COC(c2coc3ccc(Cl)cc3c2=O)OC1c1ccccc1O (racemic) [Compound 3, (Z)-6-(2-(6-Chloro-4-oxo-4H-chromen-3-yl)-4-(2-hydroxyphenyl)-1,3-dioxan-5-yl)hex-4-enoic acid]
Occlusion time [1]: prolongs the occlusion time
Total blood flow [1]: improves total blood flow
Inhibition of platelet aggregation (in words) [2]: potent inhibitors of platelet aggregation
inhibition at 30 µM ([2]; Oryctolagus cuniculus, at 30 μM, 1.5 μM U-46619, platelet rich plasma): 100%
Binding to PPARgamma (in words) ([3]; compared with Compound A): binds to PPARgamma at least as well as Compound A
Effect in glucose uptake assays (in words) [4]: effect similar if not better to Compound A (racemate)

Source: patent US20130197030A1, “Substituted 1,3-Dioxanes and There Uses” (Evolva Sa, priority 2007, published 2013)
